{"source": "patent US5439928A", "about": "“Aromatase inhibiting 4(5)-imidazoles” (Orion-yhtyma Oy, priority 1993, dated 1995)"}
{"tested_on": "DMBA-induced rat mammary adenocarcinomas", "experiment": "Anti-tumour effect in vivo against DMBA-induced rat mammary adenocarcinomas", "settings": "3 mg/kg, daily for five weeks, female rats; control 3", "description": "(§1) The anti-tumour effect was investigated in vivo against DMBA-induced rat mammary adenocarcinomas by the following method. Mammary adenocarcinoma was induced with DMBA in 50±2 days old female rats. Treatment with the compound under test was started after palpable tumours had appeared. Tumour size and amount of tumours were evaluated once a week. Tumour sizes in the control group, treated with solvent, were compared with the test groups. Daily administration schedule was employed for five weeks and animals were sacrificed. The change in tumour sizes was evaluated. Results were evaluated as changes in the sizes of tumours and divided into three groups, namely increasing, stable and decreasing sizes of tumours."}
{"molecule": "c1ccc(C(CCCc2c[nH]cn2)c2ccccc2)cc1", "note": "[Compound 9a, 4-(4,4-diphenylbutyl)-1H-imidazole]", "Number of tumours decreasing": 2}
{"tested_on": "DMBA-induced rat mammary adenocarcinomas", "experiment": "Anti-tumour effect in vivo against DMBA-induced rat mammary adenocarcinomas", "settings": "3 mg/kg, daily for five weeks, female rats; control 21", "description": "as §1"}
{"molecule": "c1ccc(C(CCCc2c[nH]cn2)c2ccccc2)cc1", "note": "[Compound 9a, 4-(4,4-diphenylbutyl)-1H-imidazole]", "Number of tumours stable": 14}
{"tested_on": "DMBA-induced rat mammary adenocarcinomas", "experiment": "Anti-tumour effect in vivo against DMBA-induced rat mammary adenocarcinomas", "settings": "3 mg/kg, daily for five weeks, female rats; control 42", "description": "as §1"}
{"molecule": "c1ccc(C(CCCc2c[nH]cn2)c2ccccc2)cc1", "note": "[Compound 9a, 4-(4,4-diphenylbutyl)-1H-imidazole]", "Number of tumours increasing": 37}
{"tested_on": "DMBA-induced rat mammary adenocarcinomas", "experiment": "Anti-tumour effect in vivo against DMBA-induced rat mammary adenocarcinomas", "settings": "30 mg/kg, daily for five weeks, female rats; control 3", "description": "as §1"}
{"molecule": "c1ccc(C(CCCc2c[nH]cn2)c2ccccc2)cc1", "note": "[Compound 9a, 4-(4,4-diphenylbutyl)-1H-imidazole]", "Number of tumours decreasing": 21}
{"tested_on": "DMBA-induced rat mammary adenocarcinomas", "experiment": "Anti-tumour effect in vivo against DMBA-induced rat mammary adenocarcinomas", "settings": "30 mg/kg, daily for five weeks, female rats; control 21", "description": "as §1"}
{"molecule": "c1ccc(C(CCCc2c[nH]cn2)c2ccccc2)cc1", "note": "[Compound 9a, 4-(4,4-diphenylbutyl)-1H-imidazole]", "Number of tumours stable": 3}
{"tested_on": "DMBA-induced rat mammary adenocarcinomas", "experiment": "Anti-tumour effect in vivo against DMBA-induced rat mammary adenocarcinomas", "settings": "30 mg/kg, daily for five weeks, female rats; control 42", "description": "as §1"}
{"molecule": "c1ccc(C(CCCc2c[nH]cn2)c2ccccc2)cc1", "note": "[Compound 9a, 4-(4,4-diphenylbutyl)-1H-imidazole]", "Number of tumours increasing": 15}
{"biological_target": "desmolase (CSCC)", "experiment": "Cholesterol side chain cleavage (CSCC, desmolase) inhibition, mitochondrial fraction from human placenta or bovine adrenals", "format": "biochemical", "settings": "substrate 5 μM, 30 min, 37° C., read-out: IC-50 CSCC (desmolase)", "units": {"IC50": "µM"}}
{"molecule": "Cc1ccccc1CCCCC(c1ccc(F)cc1)c1c[nH]cn1", "note": "(centres unmarked) [Compound 2c, 4-[1-(4-fluorophenyl)-5-(2-methylphenyl)pentyl]-1H-imidazole]", "IC50": 16}
{"molecule": "O=[N+]([O-])c1ccc(C(CCCc2c[nH]cn2)c2ccc([N+](=O)[O-])cc2)cc1", "note": "[Compound 24a, 4-[4,4-bis(4-nitrophenyl)butyl]-1H-imidazole]", "IC50": 37}
{"molecule": "Fc1ccc(C(CCCCc2ccccc2)c2c[nH]cn2)cc1", "note": "(centres unmarked) [Compound 1c, 4-[1-(4-fluorophenyl)-5-phenylpentyl]-1H-imidazole]", "IC50": 19}
{"molecule": "CCc1ccc(C(CCCc2c[nH]cn2)c2ccccc2)cc1", "note": "(centres unmarked) [Compound 26a, 4-[4-(4-ethylphenyl)-4-phenylbutyl]-1H-imidazole]", "IC50": 65}
{"molecule": "Fc1ccc(CCC(Cc2c[nH]cn2)c2ccc(F)cc2)cc1", "note": "(centres unmarked) [Compound 18c, 4-[2,4-bis(4-fluorophenyl)butyl]-1H-imidazole]", "IC50": 20}
{"molecule": "Cc1ccccc1C(CCCc1cncn1Cc1ccccc1)c1ccccc1", "note": "(centres unmarked) [Compound 6a, 1-benzyl-5-[4-(2-methylphenyl)-4-phenylbutyl]-1H-imidazole]", "IC50": 32}
{"molecule": "c1ccc(CC(CCCc2c[nH]cn2)c2ccccc2)cc1", "note": "(centres unmarked) [Compound 8a, 4-(4,5-diphenylpentyl)-1H-imidazole]", "IC50": 27}
{"molecule": "Cc1cc(C)cc(C(CCCc2c[nH]cn2)c2ccccc2)c1", "note": "(centres unmarked) [Compound 14a, 4-[4-(3,5-dimethylphenyl)-4-phenylbutyl]-1H-imidazole]", "IC50": 65}
{"molecule": "Cc1cccc(C(CCCc2cncn2Cc2ccccc2)c2ccccc2)c1", "note": "(centres unmarked) [Compound 3a, 1-benzyl-5-[4-(3-methylphenyl)-4-phenylbutyl]-1H-imidazole]", "IC50": 38}
{"molecule": "Cc1cccc(C(CCCc2c[nH]cn2)c2cccc(C)c2)c1", "note": "[Compound 13a, 4-[4,4-bis(3-methylphenyl)butyl]-1H-imidazole]", "IC50": 48}
{"molecule": "c1ccc(C(CCCCc2c[nH]cn2)c2ccccc2)cc1", "note": "[Compound 18a, 4-(5,5-diphenylpentyl)-1H-imidazole]", "IC50": 68}
{"molecule": "Cc1cccc(CCCCC(c2ccc(F)cc2)c2c[nH]cn2)c1", "note": "(centres unmarked) [Compound 3c, 4-[1-(4-fluorophenyl)-5-(3-methylphenyl)pentyl]-1H-imidazole]", "IC50": 57}
{"molecule": "Fc1ccc(CCCC(c2ccc(F)cc2)c2c[nH]cn2)cc1", "note": "(centres unmarked) [Compound 15c, 4-[1,4-bis(4-fluorophenyl)butyl]-1H-imidazole]", "IC50": 29}
{"molecule": "Cc1cccc(C(CCCc2c[nH]cn2)c2ccccc2)c1", "note": "(centres unmarked) [Compound 4a, 4-(4-(3-methylphenyl)-4-phenylbutyl]-1H-imidazole]", "IC50": 7.5}
{"molecule": "Cc1ccc(C(CCCc2c[nH]cn2)c2ccccc2)cc1C", "note": "(centres unmarked) [Compound 15a, 4-[4-(3,4-dimethylphenyl)-4-phenylbutyl]-1H-imidazole]", "IC50": 39}
{"molecule": "Cc1ccc(C(CCCc2cncn2Cc2ccccc2)c2ccccc2)cc1", "note": "(centres unmarked) [Compound 2a, 1-benzyl-5-[4-(4-methylphenyl)-4-phenylbutyl]-1H-imidazole]", "IC50": 50}
{"molecule": "Cc1ccc(C(CCCc2c[nH]cn2)c2ccccc2)cc1", "note": "(centres unmarked) [Compound 1a, 4-[4-(4-methylphenyl)-4-phenylbutyl]-1H-imidazole]", "IC50": 96}
{"molecule": "c1ccc(CCC(c2ccccc2)c2c[nH]cn2)cc1", "note": "(centres unmarked) [Compound 7c, 4-(1,3-diphenylpropyl)-1H-imidazole]", "IC50": 7.5}
{"molecule": "Fc1ccc(C(CCCc2c[nH]cn2)c2ccc(F)cc2)cc1", "note": "[Compound 23a, 4-[4,4-bis(4-fluorophenyl)butyl]-1H-imidazole]", "IC50": 175}
{"molecule": "c1ccc(C(CCCCCc2c[nH]cn2)c2ccccc2)cc1", "note": "[Compound 19a, 4-(6,6-diphenylhexyl)-1H-imidazole]", "IC50": 61}
{"molecule": "Fc1ccc(C(CCCc2ccccc2)c2c[nH]cn2)cc1", "note": "(centres unmarked) [Compound 10c, 4-[1-(4-fluorophenyl)-4-phenylbutyl]-1H-imidazole]", "IC50": 31}
{"molecule": "Fc1ccc(CCC(c2ccc(F)cc2)c2c[nH]cn2)cc1", "note": "(centres unmarked) [Compound 14c, 4-[1,3-bis(4-fluorophenyl)propyl]-1H-imidazole]", "IC50": 22}
{"molecule": "c1ccc(CCC(Cc2c[nH]cn2)c2ccccc2)cc1", "note": "(centres unmarked) [Compound 16c, 4-(2,4-diphenylbutyl)-1H-imidazole]", "IC50": 12}
{"molecule": "C(=Cc1c[nH]cn1)CC(c1ccccc1)c1ccccc1", "note": "[Compound 22a, 4-(4,4-diphenyl-1-butenyl)-1H-imidazole]", "IC50": 165}
{"molecule": "Cc1ccccc1C(CCCc1c[nH]cn1)c1ccccc1", "note": "(centres unmarked) [Compound 5a, 4-[4-(2-methylphenyl)-4-phenylbutyl]-1H-imidazole]", "IC50": 29}
{"molecule": "Cc1cccc(C)c1CCCCC(c1ccc(F)cc1)c1c[nH]cn1", "note": "(centres unmarked) [Compound 13c, 4-[1-(4-fluorophenyl)-5-(2,6-dimethylphenyl)-pentyl]-1H-imidazole]", "IC50": 31}
{"molecule": "Fc1ccc(C(CCCc2c[nH]cn2)c2ccccc2)cc1", "note": "(centres unmarked) [Compound 21a, 4-[4-(4-fluorophenyl)-4-phenylbutyl]-1H-imidazole]", "IC50": 80}
{"molecule": "Fc1ccc(C(CCc2ccccc2)Cc2c[nH]cn2)cc1", "note": "(centres unmarked) [Compound 17c, 4-[2-(4-fluorophenyl)-4-phenylbutyl]-1H-imidazole]", "IC50": 28}
{"molecule": "Cc1ccc(CCCCC(c2ccc(F)cc2)c2c[nH]cn2)cc1", "note": "(centres unmarked) [Compound 4c, 4-[1-(4-fluorophenyl)-5-(4-methylphenyl)pentyl]-1H-imidazole]", "IC50": 170}
{"molecule": "Cc1ccc(C(CCCc2c[nH]cn2)c2ccc(C)cc2)cc1", "note": "[Compound 17a, 4-[4,4-bis(4-methylphenyl)butyl]-1H-imidazole]", "IC50": 110}
{"molecule": "Fc1ccccc1C(CCCc1c[nH]cn1)c1ccccc1", "note": "(centres unmarked) [Compound 20a, 4-[4-(2-fluorophenyl)-4-phenylbutyl]-1H-imidazole]", "IC50": 38}
{"molecule": "COc1ccc(C(CCCc2c[nH]cn2)c2ccc(OC)cc2)cc1", "note": "[Compound 12a, 4-[4,4-bis(4-methoxyphenyl)butyl]-1H-imidazole]", "IC50": 46}
{"molecule": "Nc1ccc(C(CCCc2c[nH]cn2)c2ccc(N)cc2)cc1", "note": "[Compound 25a, 4-[4,4-bis(4-aminophenyl)butyl]-1H-imidazole]", "IC50": 210}
{"molecule": "Cc1cc(C)cc(CCCCC(c2ccc(F)cc2)c2c[nH]cn2)c1", "note": "(centres unmarked) [Compound 5c, 4-[5-(3,5-dimethylphenyl)-1-(4-fluorophenyl)-pentyl]-1H-imidazole]", "IC50": 80}
{"molecule": "COc1ccc(C(CCCc2c[nH]cn2)c2ccccc2)cc1", "note": "(centres unmarked) [Compound 11a, 4-[4-(4-methoxyphenyl)-4-phenylbutyl]-1H-imidazole]", "IC50": 190}
{"molecule": "Fc1ccc(C(CCc2ccccc2)c2c[nH]cn2)cc1", "note": "(centres unmarked) [Compound 9c, 4-[1-(4-fluorophenyl)-3-phenylpropyl]-1H-imidazole]", "IC50": 22}
{"molecule": "N#Cc1ccc(C(CCc2ccc(F)cc2)Cc2c[nH]cn2)cc1", "note": "(centres unmarked) [Compound 19c, 4-[2-(4-cyanophenyl)-4-(4-fluorophenyl)butyl]-1H-imidazole]", "IC50": 6.6}
{"molecule": "c1ccc(C(CCCc2c[nH]cn2)c2ccccc2)cc1", "note": "[Compound 9a, 4-(4,4-diphenylbutyl)-1H-imidazole]", "IC50": 320}
{"molecule": "Cc1cccc(C(CCCc2c[nH]cn2)c2cc(C)cc(C)c2)c1", "note": "(centres unmarked) [Compound 16a, 4-[4-(3,5-dimethylphenyl)-4-(3-methylphenyl)butyl]-1H-imidazole]", "IC50": 95}
{"molecule": "COc1cccc(CCCCC(c2ccc(F)cc2)c2c[nH]cn2)c1", "note": "(centres unmarked) [Compound 11c, 4-[1-(4-fluorophenyl)-5-(3-methoxyphenyl)pentyl]-1H-imidazole]", "IC50": 12}
{"molecule": "COc1ccc(CCCCC(c2ccc(F)cc2)c2c[nH]cn2)cc1", "note": "(centres unmarked) [Compound 12c, 4-[1-(4-fluorophenyl)-5-(4-methoxyphenyl)pentyl]-1H-imidazole]", "IC50": 22.5}
